In one test the test system is Kelly shMYCN cells. The experiment in a line: Alamar Blue viability, Dox-inducible Kelly shMYCN cells. It is filed as cell-based. The conditions noted are these: Homo sapiens, 72 h, 72 h treatment. The source says: (§1) The MYCN amplified neuroblastoma cell line SK-N-BE(2)-C was kindly provided by Professor June Biedler (Memorial Sloan Kettering Cancer Centre, New York, NY, USA), and Kelly was obtained from European Collection of Cell Cultures. The two normal lung fibroblast cell lines (MRC-5 and WI-38) were purchased from ATCC. SK-N-BE(2)-C shMYCN#2 doxycycline-inducible cell and Kelly shMYCN#2 doxycycline-inducible cell were custom-made by GenScript (Piscataway, NJ, USA). SK-N-BE(2)-C, SK-N-BE(2)-C shMYCN#2, and SHEP MYCN3 doxycycline-inducible cells were maintained in Dulbecco’s modified Eagle’s medium (DMEM) (Invitrogen, Life Technologies, Waltham, MA, USA) with 10% foetal calf serum (FCS). Kelly and Kelly shMYCN#2 doxycycline-inducible cell were cultured in Roswell Park Memorial Institute (RPMI) 1640 (Invitrogen, Life Technologies) with 10% FCS. MRC-5 and WI-38 were cultured in Alpha-MEM media (Invitrogen, Life Technologies) with 10% FCS. All cells were not cultured for more than 2 months. All used cell lines were authenticated by Cell Bank Australia (Westmead, NSW, Australia) as being free from mycoplasma, and cultured at 37 °C and 5% CO2 in a humidifier incubator.
(§2) Cell viability was determined by the Alamar Blue assay (75 mg resazurin, 12.5 mg methylene blue, 164.5 mg potassium hexacyanoferrate (III), 211 mg potassium hexacyanoferrate (II) trihydrate in 500 mL of phosphate buffered saline). After 6 h incubation with Alamar Blue, the change of fluorescence was measured by Victor 3 multilabel Plate Reader (Perkin Elmer Australia, Melburne, Australia) at an excitation wavelength of 560 nm and an emission wavelength of 590 nm.
(§3) Next, we examined whether #5333 and #5338 treatment for 48 h affected the levels of WS6 target proteins, PA2G4, and MYCN in neuroblastoma cells. […] To determine the specificity of #5333 and #5338 for MYCN, we used two different doxycycline (Dox)-inducible neuroblastoma cell systems for repression of MYCN expression: shMYCN SK-N-BE(2)-C (MYCN-amplified) and shMYCN Kelly (MYCN-amplified) cell lines. Cell viability was measured following #5333 and #5338 treatments for 48–72 h. […] In addition, the specificity and efficacy of #5333 and #5338 were also tested in MYCN non-amplified SHEP MYCN3 cell lines with Dox-inducible MYCN induction. Cell viability was measured following #5333, #5338, or WS6 treatments for 72 h.
(§4) Figure 3 Compounds #5333 and #5338 functionally interact with MYCN and PA2G4 in neuroblastoma cells. (A) Western blot showing a decrease in protein expression due to #5333 or #5338 drug treatment. (B) Alamar Blue assays comparing cell viability of SK-N-BE(2)-C after Doxycycline (Dox)-inducible MYCN knockdown, followed by 72 h treatment with #5333 or #5338. […]

The next test concerns SHEP MYCN3 cells. The experiment in a line: Alamar Blue viability, SHEP MYCN3 cells with Dox-inducible MYCN induction. It is filed as cell-based, human. As to conditions: Dox-induced MYCN expression, 72 h treatment, compared with DMSO treated controls and WS6.
From the text: The MYCN amplified neuroblastoma cell line SK-N-BE(2)-C was kindly provided by Professor June Biedler (Memorial Sloan Kettering Cancer Centre, New York, NY, USA), and Kelly was obtained from European Collection of Cell Cultures. The two normal lung fibroblast cell lines (MRC-5 and WI-38) were purchased from ATCC. SK-N-BE(2)-C shMYCN#2 doxycycline-inducible cell and Kelly shMYCN#2 doxycycline-inducible cell were custom-made by GenScript (Piscataway, NJ, USA). SK-N-BE(2)-C, SK-N-BE(2)-C shMYCN#2, and SHEP MYCN3 doxycycline-inducible cells were maintained in Dulbecco’s modified Eagle’s medium (DMEM) (Invitrogen, Life Technologies, Waltham, MA, USA) with 10% foetal calf serum (FCS). […]
as §2
Next, we examined whether #5333 and #5338 treatment for 48 h affected the levels of WS6 target proteins, PA2G4, and MYCN in neuroblastoma cells. […] Cell viability was measured following #5333 and #5338 treatments for 48–72 h. […]
(In general: Resazurin is reduced to fluorescent resorufin, in cell work by metabolically active cells.)

Test [1] deals with SK-N-BE(2)-C shMYCN cells. In words: Alamar Blue viability, Dox-inducible SK-N-BE(2)-C shMYCN cells. It is filed as cell-based. As to conditions: Homo sapiens, 72 h, 72 h treatment.
From the text: as §1, §2, §3, §4

For the next test, the system named is SK-N-BE(2)-C cells. In words: Colony formation assay, SK-N-BE(2)-C. It is filed as cell-based, human. The conditions noted are these: increasing concentrations, 2 weeks. As for the experimental part: A total of 250 SK-N-BE(2)-C and 500 Kelly cells were seeded in 6-well plates and treated with #5333 and #5338 24 h after seeding. Once colonies had formed (14 days for Kelly, 10 days for SK-N-BE(2)-C), cells were fixed and stained with 0.5% crystal violet in 50% methanol and washed twice to remove the unincorporated stain. The photos of colonies were taken by ChemiDoc MP Imaging System (Bio-Rad, South Granville, NSW, Australia). Stained colonies were counted, and colony size was measured using Image J software.
We treated human neuroblastoma tumour cell lines with high MYCN and PA2G4 expression (Kelly and SK-N-BE(2)-C), using increasing concentrations of #5333 or #5338, and measured the ability of cells to proliferate and form colonies in vitro over 2 weeks. […] Next, we evaluated cell replication using the BrdU uptake assay in response to 30 μM drug treatment for 48 h (Figure 2C).

The mark [2] stands for this setting: Dox (2 μg/ml) +, MYCN - (knockdown).

Usually IC50 stands for the point on the concentration scale where inhibition reaches its midpoint. A higher IC50 goes with weaker potency.

On to `Cc1cccc(Oc2cc(N3CCC(C(=O)NCc4cccc(Br)c4)CC3)ncn2)c1C` [#5333], for which the half-maximal inhibitory concentration (IC50) with Kelly shMYCN cells (setting [2]) amounted to 52.8 µM; in the test with Kelly shMYCN cells (Dox (2 μg/ml) -, MYCN +) it was 22.4 µM; in test [1] (setting [2]), 46.6 µM; in test [1] (Dox (2 μg/ml) -, MYCN +), 25.2 µM. In the test with SHEP MYCN3 cells, the “change of IC50 on MYCN induction, SHEP MYCN3” value is on record as “significant decrease in IC50”. The “colony number and size, SK-N-BE(2)-C” value with SK-N-BE(2)-C cells is “decreased both the number and size of the colonies”.

For `Cc1cccc(Oc2cc(N3CCC(C(=O)N[C@@H](C)CCc4ccccc4)CC3)ncn2)c1C` [#5338], the IC50 with Kelly shMYCN cells (setting [2]) turned out to be 31.5 µM; with Kelly shMYCN cells (Dox (2 μg/ml) -, MYCN +), 16 µM; in test [1] (setting [2]), 32.3 µM; in test [1] (Dox (2 μg/ml) -, MYCN +), 24.1 µM. Further, the “change of IC50 on MYCN induction, SHEP MYCN3” value in the test with SHEP MYCN3 cells is “significant decrease in IC50”. Also, the “colony number and size, SK-N-BE(2)-C” value in the test on SK-N-BE(2)-C cells is “decreased both the number and size of the colonies”.

Source of the values: publication PMC10046377, “Inhibitors of the Oncogenic PA2G4-MYCN Protein-Protein Interface” (Cancers, 2023).
